Measured values published in patent US8828416B2 (Cordis Corporation, priority 2004, dated 2014).
“Also recorded” adds a separate entry of the source. Read-outs that look alike come from different tables or passages of the source. Each block holds one molecule with its values, some of them ahead of it.

How the values were obtained:
[1] = cited from earlier work
[2] = In vivo release kinetics of cladribine and rapamycin from coated Bx Velocity stents in Yorkshire pigs; parameters: species or system Yorkshire pig
From the text: FIG. 61 is a graphical representation of the in vivo release kinetics of cladribine from a polymeric coating on Bx Velocity® stents, available from Cordis Corporation, implanted in a Yorkshire pig. The basecoat comprises an 85/15 ratio of PVDF and HFP and cladribine for a total combined weight of one thousand eight hundred micrograms (cladribine comprising thirty percent of the total weight). […]
(§1) The basecoat is applied to Bx Velocity® stents and implanted into Yorkshire pigs.
as §1

[3] = system: non-synchronized cultured human coronary artery smooth muscle cells; assay: Anti-proliferative activity in non-synchronized cultured human coronary artery smooth muscle cells stimulated with two percent fetal bovine serum; type: cell-based
From the text: The multiple curves represent various concentrations of mycophenolic acid ranging from zero to one thousand nanomolar concentrations.
FIG. 58 illustrates, in graphical format, the anti-proliferative activity of cladribine in non-synchronized cultured human coronary artery smooth muscle cells stimulated with two percent fetal bovine serum.
The multiple curves represent various concentrations of cladribine ranging from zero to nine hundred nanomolar concentrations.

[4] = In vitro release kinetics of cladribine from PVDF/HFP coatings in twenty-five percent ethanol/water; type: in vitro ADME; details: room temperature
From the text: FIG. […] The basecoat comprises a ratio of PVDF/ HFP (85/15) and cladribine. Cladribine comprises thirty percent of the basecoat. The topcoat also comprises an 85/15 ratio of PVDF and HFP, but no cladribine. Curve 5902 represents the release kinetics of cladribine wherein the basecoat weight is six hundred micrograms (one hundred eighty micrograms cladribine). Curve 5904 represents the release kinetics of cladribine wherein the basecoat weight is one thousand eight hundred micrograms (five hundred forty micrograms cladribine). Curve 5906 represents the release kinetics of cladribine wherein the basecoat weight is six hundred micrograms (one hunded eighty micrograms cladribine) and the topcoat weight is one hundred micrograms. Curve 5908 represents the release kinetics of cladribine wherein the basecoat weight is one thousand eight hundred micrograms (five hundred forty micrograms cladribine) and the topcoat is three hundred micrograms. Curve 5910 represents the release kinetic of cladribine wherein the basecoat weight is six hundred micrograms (one hundred eighty micrograms cladribine) and the topcoat is three hundred micrograms.
FIG. 60 is a graphical representation of the in vitro release kinetics of cladribine from a sterile PVDF/HFP coating incorporated in a twenty-five percent ethanol/water release medium at room temperature. […]

[5] = system: human smooth muscle cells; assay: Inhibition of human vascular cell proliferation with cladribine, smooth muscle cells, PDGF-stimulated cell count; type: cell-based; details: from IC50 values 23 and 40 nanomolar
Description: After twenty-four hours, the growth medium was changed and fresh medium containing 10 ng/ml platelet-derived growth factor AB (PDGF AB; LIFE Technologies), as well as various concentrations of cladribine (0.001-10,000 nM) were added with triplicate wells. Medium was replaced with fresh cladribine-containing medium after three days. On day six, cells were detached by trypsinization to yield a cell suspension, lightly centrifuged to pellet and then counted manually using a Neubauer hemocytometer system. Cell viability was assessed by trypan blue exclusion.

[6] = In vitro release kinetics of rapamycin from a combination of rapamycin and mycophenolic acid; type: in vitro ADME; details: FIG. 55
From the text: The in vitro tests were run twice for each coating scenario.

[7] = In vivo release kinetics of rapamycin and mycophenolic acid from polymer coatings, porcine pharmacokinetics studies
From the text: The topcoat is two hundred micro grams.

cell viability = assay: Separate cell viability assay of topotecan; type: cell-based; details: concentrations up to one micromolar
From the text: (§2) The multiple curves represent various concentrations of topotecan ranging from zero to three hundred nanomolar concentrations.

[8] = system: human coronary artery smooth muscle cell; details: Brehm et al., 2000; cited from earlier work
[9] = system: synchronized cultured human coronary artery smooth muscle cells; assay: Anti-proliferative activity in synchronized cultured human coronary artery smooth muscle cells stimulated with two percent fetal bovine serum; type: cell-based; details: topotecan zero to three hundred nanomolar, FIG. 64
From the text: as §2

[10] = system: human coronary artery smooth muscle cell; assay: Inhibition of coronary artery smooth muscle cell proliferation by trichostatin A, in vitro cell culture; type: cell-based
From the text: FIG. 51 is a graph of the inhibition of coronary artery smooth muscle cells by trichostatin A in a cell culture study.

tumor cell lines = tumor cell lines (Woo et al., 2002); cited from earlier work

Structure (SMILES): CC[C@@]1(O)C(=O)OCc2c1cc1n(c2=O)Cc2cc3ccccc3nc2-1 [Camptothecin, camptothecin]
lipid solubility [1]: high lipid solubility
water solubility [1]: poor water solubility

Structure (SMILES): Nc1nc(Cl)nc2c1ncn2[C@H]1C[C@H](O)[C@@H](CO)O1 [Cladribine, 2-chlorodeoxyadenosine]
in vivo elution of cladribine compared with rapamycin ([2]; EVA/BMA basecoat, 200 μg BMA topcoat, Yorkshire pigs, FIG. 63): elutes more rapidly than rapamycin
in vivo elution of cladribine over time ([2]; PVDF/HFP 85/15 basecoat 1800 μg (thirty percent cladribine), 300 μg topcoat, Yorkshire pig, FIG. 61): after the first day, the elution of cladribine levels off significantly
inhibition of human coronary artery smooth muscle cell proliferation ([3]; cladribine alone, FIG. 58): completely inhibits
effect of added cladribine on the anti-proliferative rapamycin dose response curve ([3]; cladribine zero to nine hundred nanomolar, FIG. 57): potentiate the anti-proliferative activity of rapamycin; also recorded: increases the percent inhibition of rapamycin alone
in vitro release rate of cladribine, effect of topcoat weight ([4]; non-sterile PVDF/HFP (85/15) coatings, FIG. 59): an increase in topcoat weight or thickness led to a decrease in the release rate of cladribine
in vitro release rate of cladribine, effect of topcoat ([4]; sterile PVDF/HFP coating, FIG. 60): a three-times topcoat led to a drastic decrease of release rate
potency as inhibitor of smooth muscle cells relative to endothelial cells [5]: approximately twice as potent

in vivo release rates of rapamycin from rapamycin/cladribine EVA/BMA basecoats ([2]; three rapamycin/cladribine loadings, 200 μg BMA topcoat, Yorkshire pigs, FIG. 62): substantially similar to one another
Structure (SMILES): CO[C@H]1C[C@@H]2CC[C@@H](C)[C@@](O)(O2)C(=O)C(=O)N2CCCC[C@H]2C(=O)O[C@H]([C@H](C)C[C@@H]2CC[C@@H](O)[C@H](OC)C2)CC(=O)[C@H](C)/C=C(\C)[C@@H](O)[C@@H](OC)C(=O)[C@H](C)C[C@H](C)/C=C/C=C/C=C/1C [Rapamycin, rapamycin]
in vitro release of rapamycin from EVA/BMA basecoat, effect of BMA topcoat ([6]; 600 μg basecoat with 180 μg rapamycin and 180 μg mycophenolic acid): BMA topcoat does slow the release of rapamycin from the basecoat in in vitro testing
in vitro release rates of rapamycin compared with in vivo ([6]; EVA/BMA basecoat): release rates are faster than in the in vivo testing
in vivo release of rapamycin from EVA/BMA basecoat, effect of BMA topcoat ([7]; 600 μg basecoat with 180 μg rapamycin and 180 μg mycophenolic acid, no, 100 or 200 μg BMA topcoat, FIG. 53): BMA topcoat does slow the release of rapamycin from the basecoat
in vivo release rate of rapamycin compared with mycophenolic acid ([7]; PVDF basecoat 600 μg with PVDF topcoat 200 μg, FIG. 56): slower release rate than that of mycophenolic acid

Structure (SMILES): CC[C@@]1(O)C(=O)OCc2c1cc1n(c2=O)Cc2cc3c(CN(C)C)c(O)ccc3nc2-1 [Topotecan, topotecan]
cytotoxicity in cell viability assay (cell viability): non-cytotoxic
inhibition of human coronary artery smooth muscle cell proliferation [8]: inhibit human coronary artery smooth muscle cell proliferation
effect of added topotecan on the anti-proliferative rapamycin dose response curve [9]: potentiate the anti-proliferative activity of rapamycin; also recorded: increases the percent inhibition of rapamycin alone

Structure (SMILES): COc1c(C)c2c(c(O)c1C/C=C(\C)CCC(=O)O)C(=O)OC2 [mycophenolic acid]
effect of added mycophenolic acid on the anti-proliferative rapamycin dose response curve ([3]; mycophenolic acid zero to one thousand nanomolar, FIG. 52): potentiates the anti-proliferative activity of rapamycin
in vivo release of mycophenolic acid from EVA/BMA basecoat, effect of BMA topcoat ([7]; 600 μg basecoat with 180 μg rapamycin and 180 μg mycophenolic acid, no, 100 or 200 μg BMA topcoat, FIG. 54): BMA topcoat does slow the release of mycophenolic acid from the basecoat
in vivo elution of mycophenolic acid compared with rapamycin ([7]; EVA/BMA basecoat, FIG. 53 and 54): elutes more completely over a shorter duration than the rapamycin

Structure (SMILES): CC(/C=C/C(=O)NO)=C\[C@@H](C)C(=O)c1ccc(N(C)C)cc1 [trichostatin A]
inhibition of human coronary artery smooth muscle cell proliferation ([10]; FIG. 51): completely inhibit
IC50 ([10]; read-out: anti-proliferative IC50): ~6 nM
anti-proliferative IC50 (tumor cell lines): low nM range
